{"source": "patent US10857230B2", "about": "“Co-therapy comprising a small molecule CSF-1R inhibitor and an agonistic antibody that specifically binds CD40 for the treatment of cancer” (Janssen Biotech, Inc., priority 2017, dated 2020)", "tested_on": "CT26 murine colon carcinoma cells", "assay": "Mean Tumor Volume Assay, CT26 (Example 3)", "type": "in vivo, BALB/c mice", "conditions": "anti-mCD40 5 mpk, anti-CSF1R 10 mpk i.p. Days 1, 5, 9, 13", "protocol": "The assay was run using female BALB/c mice (BALB/c AnNcr1, Charles River).\nCT26 murine colon carcinoma cells were grown in RPMI-1640 medium containing 10% fetal bovine serum, 2 mM glutamine, 100 units/mL penicillin G sodium, 100 μg/mL streptomycin sulfate, and 25 μg/mL gentamicin. The cells were cultured in tissue culture flasks in a humidified incubator at 37° C., in an atmosphere of 5% CO2 and 95% air.\nThe CT26 colon cells used for implantation were harvested during log phase growth and re-suspended in cold phosphate buffered saline (PBS).\nEach mouse was injected subcutaneously in the right flank with 1×10^6 tumor cells (0.1 mL cell suspension) and tumors were monitored as their volumes approached the target range of 75 to 125 mm^3. Day 1 of the study, animals with individual tumor volumes ranging from 75 to 125 mm^3 were randomized into six different groups (n=12).\nThe compound of formula of formula (I), rat IgG2a (Clone 2A3) (5.55 mg/mL), anti-CSF1R (purchased from BioXCell anti-mouse CSF1R (CD115), Clone: AFS98, SKU: BE0213, Lot No. 5248/0814) and anti-mCD40 (purchased from BioXCell, anti-mouse CD40, Clone: FGK45, SKU: 13E0016-2-) were used as test compounds, alone or in combination. The compound of formula (I) was stored at room temperature and antibody stock solutions were stored at 4° C. upon receipt. The compound of formula (I) was dissolved in 0.5% HPMC to yield a 1.0 mg/mL dosing solution. The dosing solution was stored at 4° C., protected from light. The rat IgG2a isotype, anti-CD40 and anti-CSF1R dosing solutions were prepared once at the beginning of study by diluting aliquots of the stock solutions with PBS. The dosing solution was stored at 4° C., protected from light.\nOn Day 1 of the study, groups of BALB/c mice (n=12/group) began dosing according to the following protocol\nThe vehicle (0.5% HPMC) and compound of formula (I) were administered orally (p.o.). The rat IgG2a isotype control, anti-mCD40 and anti-CSF1R were administered intraperitoneally (i.p.). Rat IgG2a(2A3), the anti-CSF1R and compound of formula (I) were administered at 10 mg/kg. The anti-mCD40 was administered at 5 mg/kg. The dosing volume for all animals was 10 mL/kg (0.2 mL per 20-g mouse) and was adjusted for body weight."}
{"smiles": "CC1(C)CC=C(c2nc(C3CC(C)(C)OC(C)(C)C3)ccc2NC(=O)c2nc(C#N)c[nH]2)CC1", "note": "[compound of formula (I), 4-cyano-N-(2-(4,4-dimethylcyclohex-1-en-1-yl)-6-(2,2,6,6-tetramethyltetrahydro-2H-pyran-4-yl)pyridin-3-yl)-1H-imidazole-2-carboxamide]", "values": [{"measurement": "Group Mean Tumor Volume, Day 6", "setting": "Day 6, formula (I) 10 mpk b.i.d. × 14 days p.o.", "value": 107.69, "unit": "mm^3"}, {"measurement": "% Tumor Growth Inhibition, Day 6", "setting": "Day 6, relative to Group 1 control, formula (I) 10 mpk b.i.d. × 14 days p.o.", "value": "−0.86", "unit": "%"}, {"measurement": "Group Mean Tumor Volume, Day 8", "setting": "Day 8, formula (I) 10 mpk b.i.d. × 14 days p.o.", "value": 130.14, "unit": "mm^3"}, {"measurement": "% Tumor Growth Inhibition, Day 8", "setting": "Day 8, relative to Group 1 control, formula (I) 10 mpk b.i.d. × 14 days p.o.", "value": "−6.79", "unit": "%"}, {"measurement": "Group Mean Tumor Volume, Day 10", "setting": "Day 10, formula (I) 10 mpk b.i.d. × 14 days p.o.", "value": 196.09, "unit": "mm^3"}, {"measurement": "% Tumor Growth Inhibition, Day 10", "setting": "Day 10, relative to Group 1 control, formula (I) 10 mpk b.i.d. × 14 days p.o.", "value": "−24.44", "unit": "%"}, {"measurement": "Group Mean Tumor Volume, Day 13", "setting": "Day 13, formula (I) 10 mpk b.i.d. × 14 days p.o.", "value": 268.17, "unit": "mm^3"}, {"measurement": "% Tumor Growth Inhibition, Day 13", "setting": "Day 13, relative to Group 1 control, formula (I) 10 mpk b.i.d. × 14 days p.o.", "value": "−1.27", "unit": "%"}, {"measurement": "Group Mean Tumor Volume, Day 15", "setting": "Day 15, formula (I) 10 mpk b.i.d. × 14 days p.o.", "value": 392.41, "unit": "mm^3"}, {"measurement": "% Tumor Growth Inhibition, Day 15", "setting": "Day 15, relative to Group 1 control, formula (I) 10 mpk b.i.d. × 14 days p.o.", "value": 5.39, "unit": "%"}, {"measurement": "Group Mean Tumor Volume, Day 16", "setting": "Day 16, formula (I) 10 mpk b.i.d. × 14 days p.o.", "value": 412.91, "unit": "mm^3"}, {"measurement": "% Tumor Growth Inhibition, Day 16", "setting": "Day 16, relative to Group 1 control, formula (I) 10 mpk b.i.d. × 14 days p.o.", "value": "−2.37", "unit": "%"}, {"measurement": "Group Mean Tumor Volume, Day 20", "setting": "Day 20, formula (I) 10 mpk b.i.d. × 14 days p.o.", "value": 739.49, "unit": "mm^3"}, {"measurement": "% Tumor Growth Inhibition, Day 20", "setting": "Day 20, relative to Group 1 control, formula (I) 10 mpk b.i.d. × 14 days p.o.", "value": 16.42, "unit": "%"}]}
